This is an account of results in patent publication US20030118571A1, “Oral administration of lactobacillus for the maintenance of health in women during pregnancy and at other life stages, to reduce the risk of urogenital diseases” (priority 1999, published 2003).

Where two headings read alike, the source gives them in different places. No end group written: not given here.

Assay [1] has as its system E. coli. The assay can be described thus: MIC of peptides against uropathogenic microorganisms. Conditions: bactericidal if less than 0.1% of original bacteria remained viable. It is filed as cell-based, Escherichia coli HU734.
The subject of assay [2] is Ps. aeruginosa. Described as above. It counts as cell-based, Pseudomonas aeruginosa AK1. To be noted: P. aeruginosa; bactericidal if less than 0.1% of original bacteria remained viable.
The test system of assay [3] is Kl. pneumoniae. The assay is described as above. It is filed as cell-based. Conditions: K. pneumoniae; bactericidal if less than 0.1% of original bacteria remained viable.
Assay [4] has as its system Staph. epidermidis. The description is as above. It counts as cell-based, Staphylococcus epidermidis 1938.
Assay [5] deals with L. rhamnosus GR-1.
Experimental: (§1) Mean values obtained from three independent experiments are shown.
(§2) Action of the peptide was considered bactericidal if less than 0.1% of original number of bacteria remained viable following the treatment. Resistant organisms were also plated from the 100 μmol 1^−1 well to confirm presence of any inhibition.
Assay [6] relates to L. rhamnosus 81.
Experimental: as §1, §2
Assay [7] has as its system L. plantarum RC-20.
Experimental: as §1, §2
The test system of assay [8] is L. fermentum RC-14.
Experimental: as §1, §2
Assay [9] relates to L. fermentum B-54.
Experimental: as §1, §2

Consider “FALL-39 (FALLGDFFRKSKEKIGKEFKRIVQRIKDFLRNLVPRTES; Antibacterial peptide FALL-39; UniProt P49913 132-170, looked up)”, for which the mode of action result is given as “bactericidal” in [1], “bacteriostatic” in assay [2], “bacteriostatic” in assay [3] and “bacteriostatically” in assay [9] (L. fermentum B-54). Besides, the MIC is greater than 100 μmol 1^−1 M in assay [4] and 100 µM in [9] (L. fermentum B-54 as indicator organism). Further, the “susceptibility of strain to peptide” value in assay [5] (L. rhamnosus GR-1, highest concentration 100 μmol 1^−1) is on record as “resistant”; in [6] (L. rhamnosus 81, highest concentration 100 μmol 1^−1), “resistant”; in assay [7] (L. plantarum RC-20, highest concentration 100 μmol 1^−1) it was “resistant”; in assay [8] (L. fermentum RC-14, highest concentration 100 μmol 1^−1), “resistant”.
As for “SWLSKTAKKLENSAKKRISEGIAIAIQGGPR [Cecropin P1]”, the mode of action entry in assay [1], in assay [2] and in assay [3] was “bacteriocidally” each time. The MIC in [4] was greater than 100 μmol 1^−1 M; in assay [5] it was greater than 100 µM; in assay [6] it was greater than 100 µM; in assay [7], greater than 100 µM; in [8], greater than 100 µM; in assay [9] it was greater than 100 µM.
